The source made the active and inactive calls. The rule behind the calls is not given here.
Legend:
Tubulin (Homo sapiens) [1] = target: T1, Tubulin (Homo sapiens) (UniProt P68371+Q9H4B7+P0DPH7+P68366+Q13509+Q71U36+P04350+Q3ZCM7+P07437+P68363+Q9BQE3+Q6PEY2+Q13885+Q9BVA1+Q9BUF5); settings: at 1 µM
Description: Displacement of [3H]colchicine from tubulin (unknown origin) at 1 uM after 10 mins

Tubulin (Homo sapiens) [2] = target: T1, Tubulin (Homo sapiens); settings: at 5 µM
Description: Displacement of [3H]colchicine from tubulin (unknown origin) at 5 uM after 10 mins

[3] = Growth inhibition of human NCI60 cells; type: functional
Tubulin = experiment: Inhibition of tubulin (unknown origin) assembly after 20 mins by turbidimetric analysis; type: protein-complex assay, Homo sapiens
[4] = Growth inhibition of human KBV1a cells; type: functional; settings: pooled result: one value given for 5 cell lines, strains, targets or settings
HOP-62 = experiment: Cytotoxicity against human HOP62 cells; type: functional
HCT-15 = experiment: Cytotoxicity against human HCT15 cells; type: functional
MDA-MB-231 [5] = experiment: Cytotoxicity against human MDA-MB-231 cells; type: functional
CCRF-CEM = experiment: Cytotoxicity against human CCRF-CEM cells; type: functional
HL-60(TB) = experiment: Cytotoxicity against human HL-60(TB) cells; type: functional
A498 = experiment: Cytotoxicity against human A498 cells; type: functional
RXF 393 = experiment: Cytotoxicity against human RXF393 cells; type: functional
U-251 = experiment: Cytotoxicity against human U251 cells; type: functional
[6] = Cytotoxicity against human EKVX cells; type: functional
MOLT-4 = experiment: Cytotoxicity against human MOLT4 cells; type: functional
NCI-H322M = experiment: Cytotoxicity against human NCI-H322M cells; type: functional
A549 = experiment: Cytotoxicity against human A549 cells; type: functional
CAKI-1 = experiment: Cytotoxicity against human Caki1 cells; type: functional
SN12C = experiment: Cytotoxicity against human SN12C cells; type: functional
SW-620 = experiment: Cytotoxicity against human SW620 cells; type: functional
RPMI-8226 = experiment: Cytotoxicity against human RPMI8226 cells; type: functional
SNB-75 = experiment: Cytotoxicity against human SNB75 cells; type: functional
OVCAR-8 = experiment: Cytotoxicity against human OVCAR8 cells; type: functional
SF-295 = experiment: Cytotoxicity against human SF295 cells; type: functional
OVCAR-5 = experiment: Cytotoxicity against human OVCAR5 cells; type: functional
ACHN = experiment: Cytotoxicity against human ACHN cells; type: functional
SK-OV-3 = experiment: Cytotoxicity against human SKOV3 cells; type: functional
OVCAR-3 = experiment: Cytotoxicity against human OVCAR3 cells; type: functional
SK-MEL-28 = experiment: Cytotoxicity against human SK-MEL-28 cells; type: functional
NCI-H460 = experiment: Cytotoxicity against human NCI-H460 cells; type: functional
K562 = experiment: Cytotoxicity against human K562 cells; type: functional
SK-MEL-2 = experiment: Cytotoxicity against human SK-MEL-2 cells; type: functional
HOP-92 = experiment: Cytotoxicity against human HOP92 cells; type: functional
MDA-MB-435 = experiment: Cytotoxicity against human MDA-MB-435 cells; type: functional
PC-3 [7] = experiment: Cytotoxicity against human PC3 cells; type: functional
HT-29 = experiment: Cytotoxicity against human HT-29 cells; type: functional
SNB-19 = experiment: Cytotoxicity against human SNB19 cells; type: functional
NCI-H522 = experiment: Cytotoxicity against human NCI-H522 cells; type: functional
KM12 = experiment: Cytotoxicity against human KM12 cells; type: functional
UO-31 = experiment: Cytotoxicity against human UO31 cells; type: functional
DU-145 [8] = experiment: Cytotoxicity against human DU145 cells; type: functional
OVCAR-4 = experiment: Cytotoxicity against human OVCAR4 cells; type: functional
SF-539 = experiment: Cytotoxicity against human SF539 cells; type: functional
T47D = experiment: Cytotoxicity against human T47D cells; type: functional
COLO 205 = experiment: Cytotoxicity against human COLO205 cells; type: functional
IGROV-1 = experiment: Cytotoxicity against human IGROV1 cells; type: functional
NCI-H226 = experiment: Cytotoxicity against human NCI-H226 cells; type: functional
UACC-62 = experiment: Cytotoxicity against human UACC62 cells; type: functional
SK-MEL-5 = experiment: Cytotoxicity against human SK-MEL-5 cells; type: functional
MCF7 = experiment: Cytotoxicity against human MCF7 cells; type: functional
SF-268 = experiment: Cytotoxicity against human SF268 cells; type: functional
UACC-257 = experiment: Cytotoxicity against human UACC257 cells; type: functional
TK-10 = experiment: Cytotoxicity against human TK10 cells; type: functional
MDA-MB-468 = experiment: Cytotoxicity against human MDA-MB-468 cells; type: functional
Malme-3M = experiment: Cytotoxicity against human MALME-3M cells; type: functional
[9] = Cytotoxicity against human Hs 578T cells; type: functional
PC-3 [10] = experiment: Growth inhibition of human PC3 cells; type: functional
PANC-1 = experiment: Growth inhibition of human PANC1 cells; type: functional
HCT-116 = experiment: Growth inhibition of human HCT116 cells; type: functional
MDA-MB-231 [11] = experiment: Growth inhibition of human MDA-MB-231 cells; type: functional
DU-145 [12] = experiment: Growth inhibition of human DU145 cells; type: functional

Fc1ccccc1Nc1nc(-c2ccccc2)no1
inhibition (Tubulin (Homo sapiens) [1]): inactive
inhibition (Tubulin (Homo sapiens) [2]): inactive

COc1ccc(OC)c(-c2noc(Nc3ccc4c(c3)OCO4)n2)c1
inhibition (Tubulin (Homo sapiens) [1]): 21%
inhibition (Tubulin (Homo sapiens) [2]): 52%
GI50 [3]: 6460 nM
IC50 (Tubulin): 2500 nM

COc1cccc(-c2noc(Nc3ccc4c(c3)OCO4)n2)c1
inhibition (Tubulin (Homo sapiens) [1]): 40%
inhibition (Tubulin (Homo sapiens) [2]): 76%
GI50 [3]: 1230 nM
IC50 (Tubulin): 2200 nM

COc1cccc(-c2noc(Nc3ccc(OC)c(Cl)c3)n2)c1
inhibition (Tubulin (Homo sapiens) [1]): 36%
inhibition (Tubulin (Homo sapiens) [2]): 73%
GI50 [3]: 562 nM
IC50 (Tubulin): 2300 nM

COc1ccc(-n2cnnc2-c2cc(OC)c(OC)c(OC)c2)cc1F
GI50 [4]: 556 nM

CCc1ccc(Nc2nc(-c3cccc(OC)c3)no2)cc1
inhibition (Tubulin (Homo sapiens) [1]): 40%
inhibition (Tubulin (Homo sapiens) [2]): 81%
IC50 (Tubulin): 1600 nM

COc1ccc(-n2cnnc2-c2cc(OC)c(OC)c(OC)c2)cc1
GI50 [4]: 464 nM

COc1cccc(-c2noc(Nc3ccc(C)cc3)n2)c1OC
inhibition (Tubulin (Homo sapiens) [1]): 24%
inhibition (Tubulin (Homo sapiens) [2]): 52%
GI50 [3]: 2630 nM
IC50 (Tubulin): 3600 nM

COc1ccc(OC)c(-c2noc(Nc3ccc4c(c3)OCCO4)n2)c1
inhibition (Tubulin (Homo sapiens) [1]): 23%
inhibition (Tubulin (Homo sapiens) [2]): 50%
IC50 (Tubulin): 3500 nM

COc1ccc(Nc2nc(-c3ccccc3F)no2)cc1
GI50 (HOP-62): 135 nM
GI50 (HCT-15): 85.1 nM
GI50 (MDA-MB-231 [5]): 676 nM
GI50 (CCRF-CEM): 138 nM
GI50 (HL-60(TB)): 25.7 nM
GI50 (A498): 229 nM
GI50 (RXF 393): 155 nM
GI50 (U-251): 60.3 nM
GI50 [6]: 1510 nM
inhibition (Tubulin (Homo sapiens) [1]): 68%
GI50 (MOLT-4): 91.2 nM
GI50 (NCI-H322M): 501 nM
GI50 (A549): 91.2 nM
inhibition (Tubulin (Homo sapiens) [2]): 91%
GI50 (CAKI-1): 64.6 nM
GI50 [3]: 204 nM
GI50 (SN12C): 240 nM
GI50 (SW-620): 47.9 nM
GI50 (RPMI-8226): 372 nM
GI50 (SNB-75): 141 nM
GI50 (OVCAR-8): 209 nM
GI50 (SF-295): 61.7 nM
GI50 (OVCAR-5): 724 nM
GI50 (ACHN): 490 nM
GI50 (SK-OV-3): 204 nM
GI50 (OVCAR-3): 38 nM
GI50 (SK-MEL-28): 339 nM
GI50 (NCI-H460): 61.7 nM
GI50 (K562): 30.9 nM
GI50 (SK-MEL-2): 39.8 nM
GI50 (HOP-92): 3800 nM
GI50 (MDA-MB-435): 19.9 nM
GI50 (PC-3 [7]): 447 nM
GI50 (HT-29): 34.7 nM
GI50 (SNB-19): 87.1 nM
GI50 (NCI-H522): 19.9 nM
GI50 (KM12): 112 nM
GI50 (UO-31): 339 nM
GI50 (DU-145 [8]): 141 nM
GI50 (OVCAR-4): 776 nM
GI50 (SF-539): 107 nM
GI50 (T47D): 15100 nM
GI50 (COLO 205): 126 nM
GI50 (IGROV-1): 389 nM
GI50 (NCI-H226): 2190 nM
GI50 (UACC-62): 53.7 nM
GI50 (SK-MEL-5): 151 nM
GI50 (MCF7): 263 nM
GI50 (SF-268): 501 nM
GI50 (UACC-257): 14100 nM
GI50 (TK-10): 832 nM
GI50 (MDA-MB-468): 1070 nM
IC50 (Tubulin): 1100 nM
GI50 (Malme-3M): 58.9 nM
GI50 [9]: 389 nM

COc1ccc(/C=C\c2cc(OC)c(OC)c(OC)c2)cc1O [COMBRETASTATIN A4]
GI50 [3]: 14.8 nM

Cc1ccc(Nc2nc(-c3ccccc3F)no2)cc1
inhibition (Tubulin (Homo sapiens) [1]): 57%
inhibition (Tubulin (Homo sapiens) [2]): 85%
GI50 [3]: 603 nM
IC50 (Tubulin): 1600 nM

CCc1ccc(Nc2nc(-c3ccccc3F)no2)cc1
inhibition (Tubulin (Homo sapiens) [1]): 41%
inhibition (Tubulin (Homo sapiens) [2]): 73%
IC50 (Tubulin): 2700 nM

Cc1ccc(Nc2nc(-c3ccccc3F)no2)cc1F
inhibition (Tubulin (Homo sapiens) [1]): 52%
inhibition (Tubulin (Homo sapiens) [2]): 81%
GI50 [3]: 851 nM
IC50 (Tubulin): 1600 nM

CCOc1ccc(Nc2nc(-c3ccccc3F)no2)cc1
inhibition (Tubulin (Homo sapiens) [1]): 42%
inhibition (Tubulin (Homo sapiens) [2]): 76%
IC50 (Tubulin): 1700 nM

CCc1ccc(Nc2nc(-c3cc(OC)ccc3OC)no2)cc1
inhibition (Tubulin (Homo sapiens) [1]): 36%
inhibition (Tubulin (Homo sapiens) [2]): 65%
GI50 [3]: 575 nM
IC50 (Tubulin): 1800 nM

CCOc1ccc(Nc2nc(-c3ccccc3)no2)cc1
inhibition (Tubulin (Homo sapiens) [1]): 49%
inhibition (Tubulin (Homo sapiens) [2]): 82%
IC50 (Tubulin): 1200 nM

COc1cccc(-c2noc(Nc3ccc4c(c3)OCCO4)n2)c1
inhibition (Tubulin (Homo sapiens) [1]): 38%
inhibition (Tubulin (Homo sapiens) [2]): 76%
IC50 (Tubulin): 1900 nM

Cc1ccc(Nc2nc(-c3ccccc3)no2)cc1
inhibition (Tubulin (Homo sapiens) [1]): 61%
inhibition (Tubulin (Homo sapiens) [2]): 88%
IC50 (Tubulin): 1400 nM

COc1cccc(-c2noc(Nc3ccc(C)cc3)n2)c1
inhibition (Tubulin (Homo sapiens) [1]): 56%
inhibition (Tubulin (Homo sapiens) [2]): 85%
IC50 (Tubulin): 1500 nM

COc1ccc(OC)c(Nc2nc(-c3cccc(OC)c3OC)no2)c1
inhibition (Tubulin (Homo sapiens) [1]): inactive
inhibition (Tubulin (Homo sapiens) [2]): inactive

CCOc1ccc(Nc2nc(-c3cccc(OC)c3OC)no2)cc1
inhibition (Tubulin (Homo sapiens) [1]): 20%
inhibition (Tubulin (Homo sapiens) [2]): 56%
IC50 (Tubulin): 1800 nM

CCOc1ccc(Nc2nc(-c3cccc(OC)c3)no2)cc1
inhibition (Tubulin (Homo sapiens) [1]): 37%
inhibition (Tubulin (Homo sapiens) [2]): 78%
GI50 [3]: 851 nM
IC50 (Tubulin): 1600 nM

COc1ccc(Nc2nc(-c3cccc(OC)c3)no2)cc1
inhibition (Tubulin (Homo sapiens) [1]): 58%
GI50 (PC-3 [10]): 9.77 nM
inhibition (Tubulin (Homo sapiens) [2]): 90%
GI50 (PANC-1): 9.77 nM
GI50 (HCT-116): 9.77 nM
GI50 (MDA-MB-231 [11]): 9.77 nM
GI50 (DU-145 [12]): 9.77 nM
IC50 (Tubulin): 1900 nM

COc1ccc(OC)c(-c2noc(Nc3ccc(C)c(F)c3)n2)c1
inhibition (Tubulin (Homo sapiens) [1]): inactive
inhibition (Tubulin (Homo sapiens) [2]): 53%
IC50 (Tubulin): 3500 nM

CCOC(=O)c1cccc(Nc2nc(-c3ccc(OC)cc3)no2)c1
inhibition (Tubulin (Homo sapiens) [1]): inactive
inhibition (Tubulin (Homo sapiens) [2]): inactive

COc1ccc(Nc2nc(-c3ccccc3)no2)cc1Cl
inhibition (Tubulin (Homo sapiens) [1]): 52%
inhibition (Tubulin (Homo sapiens) [2]): 80%
IC50 (Tubulin): 1700 nM

COc1ccc(Nc2nc(-c3cccc(OC)c3OC)no2)cc1
inhibition (Tubulin (Homo sapiens) [1]): 31%
inhibition (Tubulin (Homo sapiens) [2]): 68%
GI50 [3]: 245 nM
IC50 (Tubulin): 2600 nM
